{"source": "patent US10967078B2", "about": "“Radiolabelled mGluR2 PET ligands” (Janssen Pharmaceutica NV, priority 2014, dated 2021)", "test": "Biodistribution studies in normal female Wistar rats", "format": "in vivo, rat", "details": "for % ID blood / SUV blood / % ID bone / SUV bone / % ID carcass / % ID cerebellum / SUV cerebellum / SUV cerebrum + cerebellum / % ID cerebrum total / % ID cortex / SUV cortex / % ID heart / % ID hippocampus / SUV hippocampus / % ID intestines / % ID kidneys / % ID liver / % ID lungs / % ID muscle / SUV muscle / % ID rest of cerebrum / SUV rest of cerebrum / % ID spleen + pancreas / % ID stomach / % ID striatum / SUV striatum / % ID urine / SUV whole cerebrum: mean n=3; for SUV cerebrum + cerebellum / Total brain uptake: cerebrum + cerebellum; for Total brain uptake: n=3", "protocol": "High-performance liquid chromatography (HPLC) analysis was performed on a LaChrom Elite® HPLC system (Hitachi, Armstadt, Germany) connected to a UV spectrometer. For the analysis of radiolabeled compounds, the HPLC eluate, after passage through the UV detector, was led over a shielded 3-inch NaI(Tl) scintillation detector connected to a single channel analyser (Gabi box, Raytest, Straubenhardt, Germany). The output signal was recorded and analysed using a GINA Star data acquisition system (Raytest, Straubenhardt, Germany). Radioactivity in samples of biodistribution studies was quantified using an automated gamma counter equipped with a 3-inch NaI(Tl) well crystal coupled to a multichannel analyser (Wallac 2480 Wizard, Wallac, Turku, Finland). Results were corrected for background radiation, physical decay and counter dead time. Animals were housed in individually ventilated cages in a thermoregulated (˜22° C.), humidity-controlled facility under a 12 h/12 h light/dark cycle with access to food and water ad libitum. All animal experiments were conducted according to the Belgian code of practice for the care and use of animals, after approval from the local University Ethics Committee for Animals.\nBiodistribution studies of [^11C]-2 and [^11C]-1 were carried out in healthy female Wister rats (body weight 185-220 g) at 2 min, 30 min and 60 min post injection (p.i.) (n=3/time point). Rats were injected with about 18 MBq of the tracer via a tail vein under anesthesia (2.5% isoflurane in O2 at 1 L/min flow rate) and sacrificed by decapitation at the above specified time points. Blood and major organs were collected in tared tubes and weighed. The radioactivity in blood, organs and other body parts was measured using an automated gamma counter. For calculation of total blood radioactivity, blood mass was assumed to be 7% of the body mass. For calculation of total muscle and total bone radioactivity, muscle and bone mass were assumed to be 40% and 12% of the body mass, respectively."}
{"smiles": "C[C@H]1CN(c2ccc(C(F)(F)F)cc2)C(=O)c2c(-c3ccnc(N[11CH3])c3)cnn21", "note": "[[^11C]-2]", "values": [{"measurement": "2 min - to- 30 min wash-out ratio", "setting": "blood", "value": 1.75}, {"measurement": "% ID blood", "setting": "blood, 2 min p.i.", "value": 4.9, "unit": "% ID"}, {"measurement": "SUV blood", "setting": "blood, 2 min p.i.", "value": 0.70, "unit": "SUV"}, {"measurement": "% ID blood", "setting": "blood, 30 min p.i.", "value": 2.8, "unit": "% ID"}, {"measurement": "SUV blood", "setting": "blood, 30 min p.i.", "value": 0.40, "unit": "SUV"}, {"measurement": "% ID blood", "setting": "blood, 60 min p.i.", "value": 2.0, "unit": "% ID"}, {"measurement": "SUV blood", "setting": "blood, 60 min p.i.", "value": 0.29, "unit": "SUV"}, {"measurement": "2 min - to- 30 min wash-out ratio", "setting": "bone", "value": 1.34}, {"measurement": "% ID bone", "setting": "bone, 2 min p.i.", "value": 7.0, "unit": "% ID"}, {"measurement": "SUV bone", "setting": "bone, 2 min p.i.", "value": 0.59, "unit": "SUV"}, {"measurement": "% ID bone", "setting": "bone, 30 min p.i.", "value": 4.9, "unit": "% ID"}, {"measurement": "SUV bone", "setting": "bone, 30 min p.i.", "value": 0.44, "unit": "SUV"}, {"measurement": "% ID bone", "setting": "bone, 60 min p.i.", "value": 4.2, "unit": "% ID"}, {"measurement": "SUV bone", "setting": "bone, 60 min p.i.", "value": 0.37, "unit": "SUV"}, {"measurement": "% ID carcass", "setting": "2 min p.i.", "value": 39.5, "unit": "% ID"}, {"measurement": "% ID carcass", "setting": "30 min p.i.", "value": 49.9, "unit": "% ID"}, {"measurement": "% ID carcass", "setting": "60 min p.i.", "value": 44.8, "unit": "% ID"}, {"measurement": "2 min - to- 30 min wash-out ratio", "setting": "cerebellum", "value": 2.85}, {"measurement": "% ID cerebellum", "setting": "cerebellum, 2 min p.i.", "value": 0.279, "unit": "% ID"}, {"measurement": "SUV cerebellum", "setting": "cerebellum, 2 min p.i.", "value": 1.78, "unit": "SUV"}, {"measurement": "% ID cerebellum", "setting": "cerebellum, 30 min p.i.", "value": 0.084, "unit": "% ID"}, {"measurement": "SUV cerebellum", "setting": "cerebellum, 30 min p.i.", "value": 0.62, "unit": "SUV"}, {"measurement": "% ID cerebellum", "setting": "cerebellum, 60 min p.i.", "value": 0.058, "unit": "% ID"}, {"measurement": "SUV cerebellum", "setting": "cerebellum, 60 min p.i.", "value": 0.45, "unit": "SUV"}, {"measurement": "SUV cerebrum + cerebellum", "setting": "2 min p.i.", "value": 1.80, "unit": "SUV"}, {"measurement": "Total brain uptake", "setting": "2 min p.i.", "value": 1.4, "unit": "% ID"}, {"measurement": "Total brain uptake", "setting": "2 min p.i., listed as [^11C-2]", "value": "1.44 ± 0.24", "unit": "% ID"}, {"measurement": "SUV cerebrum + cerebellum", "setting": "30 min p.i.", "value": 0.67, "unit": "SUV"}, {"measurement": "Total brain uptake", "setting": "30 min p.i.", "value": "0.50 ± 0.05", "unit": "% ID"}, {"measurement": "SUV cerebrum + cerebellum", "setting": "60 min p.i.", "value": 0.49, "unit": "SUV"}, {"measurement": "Total brain uptake", "setting": "60 min p.i.", "value": "0.38 ± 0.03", "unit": "% ID"}, {"measurement": "% ID cerebrum total", "setting": "2 min p.i.", "value": 1.153, "unit": "% ID"}, {"measurement": "% ID cerebrum total", "setting": "30 min p.i.", "value": 0.408, "unit": "% ID"}, {"measurement": "% ID cerebrum total", "setting": "60 min p.i.", "value": 0.316, "unit": "% ID"}, {"measurement": "2 min - to- 30 min wash-out ratio", "setting": "cortex", "value": 3.04}, {"measurement": "% ID cortex", "setting": "cortex, 2 min p.i.", "value": 0.064, "unit": "% ID"}, {"measurement": "SUV cortex", "setting": "cortex, 2 min p.i.", "value": 2.23, "unit": "SUV"}, {"measurement": "% ID cortex", "setting": "cortex, 30 min p.i.", "value": 0.024, "unit": "% ID"}, {"measurement": "SUV cortex", "setting": "cortex, 30 min p.i.", "value": 0.74, "unit": "SUV"}, {"measurement": "% ID cortex", "setting": "cortex, 60 min p.i.", "value": 0.014, "unit": "% ID"}, {"measurement": "SUV cortex", "setting": "cortex, 60 min p.i.", "value": 0.58, "unit": "SUV"}, {"measurement": "% ID heart", "setting": "2 min p.i.", "value": 1.0, "unit": "% ID"}, {"measurement": "% ID heart", "setting": "30 min p.i.", "value": 0.4, "unit": "% ID"}, {"measurement": "% ID heart", "setting": "60 min p.i.", "value": 0.3, "unit": "% ID"}, {"measurement": "2 min - to- 30 min wash-out ratio", "setting": "hippocampus", "value": 2.31}, {"measurement": "% ID hippocampus", "setting": "hippocampus, 2 min p.i.", "value": 0.046, "unit": "% ID"}, {"measurement": "SUV hippocampus", "setting": "hippocampus, 2 min p.i.", "value": 1.49, "unit": "SUV"}, {"measurement": "% ID hippocampus", "setting": "hippocampus, 30 min p.i.", "value": 0.018, "unit": "% ID"}, {"measurement": "SUV hippocampus", "setting": "hippocampus, 30 min p.i.", "value": 0.64, "unit": "SUV"}, {"measurement": "% ID hippocampus", "setting": "hippocampus, 60 min p.i.", "value": 0.016, "unit": "% ID"}, {"measurement": "SUV hippocampus", "setting": "hippocampus, 60 min p.i.", "value": 0.49, "unit": "SUV"}, {"measurement": "% ID intestines", "setting": "2 min p.i.", "value": 12.2, "unit": "% ID"}, {"measurement": "% ID intestines", "setting": "30 min p.i.", "value": 19.4, "unit": "% ID"}, {"measurement": "% ID intestines", "setting": "60 min p.i.", "value": 24.2, "unit": "% ID"}, {"measurement": "% ID kidneys", "setting": "2 min p.i.", "value": 5.3, "unit": "% ID"}, {"measurement": "% ID kidneys", "setting": "30 min p.i.", "value": 2.2, "unit": "% ID"}, {"measurement": "% ID kidneys", "setting": "60 min p.i.", "value": 1.6, "unit": "% ID"}, {"measurement": "% ID liver", "setting": "2 min p.i.", "value": 26.5, "unit": "% ID"}, {"measurement": "% ID liver", "setting": "30 min p.i.", "value": 16.0, "unit": "% ID"}, {"measurement": "% ID liver", "setting": "60 min p.i.", "value": 11.9, "unit": "% ID"}, {"measurement": "% ID lungs", "setting": "2 min p.i.", "value": 6.8, "unit": "% ID"}, {"measurement": "% ID lungs", "setting": "30 min p.i.", "value": 1.8, "unit": "% ID"}, {"measurement": "% ID lungs", "setting": "60 min p.i.", "value": 1.3, "unit": "% ID"}, {"measurement": "2 min - to- 30 min wash-out ratio", "setting": "muscle", "value": 0.46}, {"measurement": "% ID muscle", "setting": "muscle, 2 min p.i.", "value": 11.1, "unit": "% ID"}, {"measurement": "SUV muscle", "setting": "muscle, 2 min p.i.", "value": 0.26, "unit": "SUV"}, {"measurement": "% ID muscle", "setting": "muscle, 30 min p.i.", "value": 24.1, "unit": "% ID"}, {"measurement": "SUV muscle", "setting": "muscle, 30 min p.i.", "value": 0.56, "unit": "SUV"}, {"measurement": "% ID muscle", "setting": "muscle, 60 min p.i.", "value": 21.4, "unit": "% ID"}, {"measurement": "SUV muscle", "setting": "muscle, 60 min p.i.", "value": 0.48, "unit": "SUV"}, {"measurement": "2 min - to- 30 min wash-out ratio", "setting": "rest of cerebrum", "value": 2.71}, {"measurement": "% ID rest of cerebrum", "setting": "rest of cerebrum, 2 min p.i.", "value": 0.944, "unit": "% ID"}, {"measurement": "SUV rest of cerebrum", "setting": "rest of cerebrum, 2 min p.i.", "value": 1.79, "unit": "SUV"}, {"measurement": "% ID rest of cerebrum", "setting": "rest of cerebrum, 30 min p.i.", "value": 0.323, "unit": "% ID"}, {"measurement": "SUV rest of cerebrum", "setting": "rest of cerebrum, 30 min p.i.", "value": 0.66, "unit": "SUV"}, {"measurement": "% ID rest of cerebrum", "setting": "rest of cerebrum, 60 min p.i.", "value": 0.256, "unit": "% ID"}, {"measurement": "SUV rest of cerebrum", "setting": "rest of cerebrum, 60 min p.i.", "value": 0.49, "unit": "SUV"}, {"measurement": "% ID spleen + pancreas", "setting": "2 min p.i.", "value": 2.4, "unit": "% ID"}, {"measurement": "% ID spleen + pancreas", "setting": "30 min p.i.", "value": 1.4, "unit": "% ID"}, {"measurement": "% ID spleen + pancreas", "setting": "60 min p.i.", "value": 1.1, "unit": "% ID"}, {"measurement": "% ID stomach", "setting": "2 min p.i.", "value": 2.3, "unit": "% ID"}, {"measurement": "% ID stomach", "setting": "30 min p.i.", "value": 6.5, "unit": "% ID"}, {"measurement": "% ID stomach", "setting": "60 min p.i.", "value": 12.3, "unit": "% ID"}, {"measurement": "2 min - to- 30 min wash-out ratio", "setting": "striatum", "value": 2.59}, {"measurement": "% ID striatum", "setting": "striatum, 2 min p.i.", "value": 0.099, "unit": "% ID"}, {"measurement": "SUV striatum", "setting": "striatum, 2 min p.i.", "value": 1.68, "unit": "SUV"}, {"measurement": "% ID striatum", "setting": "striatum, 30 min p.i.", "value": 0.043, "unit": "% ID"}, {"measurement": "SUV striatum", "setting": "striatum, 30 min p.i.", "value": 0.65, "unit": "SUV"}, {"measurement": "% ID striatum", "setting": "striatum, 60 min p.i.", "value": 0.030, "unit": "% ID"}, {"measurement": "SUV striatum", "setting": "striatum, 60 min p.i.", "value": 0.49, "unit": "SUV"}, {"measurement": "% ID urine", "setting": "2 min p.i.", "value": 0.1, "unit": "% ID"}, {"measurement": "% ID urine", "setting": "30 min p.i.", "value": 0.5, "unit": "% ID"}, {"measurement": "% ID urine", "setting": "60 min p.i.", "value": 11, "unit": "% ID"}, {"measurement": "2 min - to- 30 min wash-out ratio", "setting": "whole cerebrum", "value": 2.70}, {"measurement": "SUV whole cerebrum", "setting": "whole cerebrum, 2 min p.i.", "value": 1.79, "unit": "SUV"}, {"measurement": "SUV whole cerebrum", "setting": "whole cerebrum, 30 min p.i.", "value": 0.66, "unit": "SUV"}, {"measurement": "SUV whole cerebrum", "setting": "whole cerebrum, 60 min p.i.", "value": 0.49, "unit": "SUV"}]}
